Assay [1] concerns the target PfPMX (recombinant plasmepsin X) (Plasmodium falciparum, UniProt Q8IAS0). Put plainly: FRET based assay for plasmepsin X cleavage of Rh2 peptide substrate. The assay is classed as biochemical. The note with it: AVG, N=2, pH 5.5. The method, then:
(§1) For cleavage assays, 10-point dilution series of the compounds (Compound EC50 determined by LDH assay) were prepared in 1536 well black low volume assay plates (Corning #3728) using an Acoustic Dispenser Echo555 (Labcyte). Appropriate volumes of 10 mM compound stocks were transferred into the assay plates starting at a top dose of 0.9 μM for PfPMX and 90 μM for PfPMIX in a 1:3 fold dilution series with 1% DMSO final concentration. IC50 values were analysed in Graphpad Prism software using a nonlinear regression four-parameter fit analysis. The equation used was sigmoidal dose response (variable slope), Y=bottom+[…].
(§2) All compound potency assays were conducted in 5 μl total volume. […] Samples were excited at 340 nm and fluorescence emission measured at 490 nm using PHERAstar FSX plate reader (BMG). […]
(§3) For cleavage assays, 10-point dilution series of the compounds, recombinant PMIX or PMX, and FRET peptide substrates were prepared in 1536 well plates. Samples were excited at 340 nm and fluorescence emission measured at 492 nm using an Envision fluorescence plate reader (Perkin-Elmer).
(§4) IC50 values were calculated by Dotmatics 5.3 and Spotfire 7.11.1 software using a nonlinear regression four-parameter fit analysis. […]

For assay [2], the target named is T1, PfPMIX (recombinant plasmepsin IX) (Plasmodium falciparum, UniProt Q8ILG2).
T1 sequence (Q8ILG2 1-627): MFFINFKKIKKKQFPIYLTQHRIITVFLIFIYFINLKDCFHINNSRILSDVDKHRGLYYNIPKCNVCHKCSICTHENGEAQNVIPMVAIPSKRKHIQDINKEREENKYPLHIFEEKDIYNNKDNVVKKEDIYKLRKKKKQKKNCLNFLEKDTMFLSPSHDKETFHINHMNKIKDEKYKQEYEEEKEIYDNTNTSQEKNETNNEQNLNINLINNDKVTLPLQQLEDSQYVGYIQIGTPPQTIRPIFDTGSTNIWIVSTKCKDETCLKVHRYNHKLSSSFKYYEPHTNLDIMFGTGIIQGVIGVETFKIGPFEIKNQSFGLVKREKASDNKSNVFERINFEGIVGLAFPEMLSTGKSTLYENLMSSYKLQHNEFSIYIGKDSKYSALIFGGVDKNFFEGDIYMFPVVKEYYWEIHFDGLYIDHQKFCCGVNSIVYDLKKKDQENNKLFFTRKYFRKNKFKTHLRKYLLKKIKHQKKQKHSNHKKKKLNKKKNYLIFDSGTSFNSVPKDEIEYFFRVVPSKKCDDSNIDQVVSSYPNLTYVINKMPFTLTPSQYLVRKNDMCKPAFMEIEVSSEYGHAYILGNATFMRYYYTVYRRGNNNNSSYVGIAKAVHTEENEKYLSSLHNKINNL
Put plainly: FRET based assay for plasmepsin IX cleavage of RON3 peptide substrate. In kind it is biochemical. The note with it: AVG, N=2, pH 5.5. The method, then:
as §1, §2, §3, §4

Assay [3] has as its system Plasmodium berghei sporozoites (PbmCherryLuci). Put plainly: Chemovaccination of mice: sporozoite liver infection, oral treatment, mosquito bite challenge. The assay is classed as in vivo, Plasmodium berghei in C57BL/6 mice. The method, then: The indicated number of Plasmodium berghei sporozoites expressing mCherry and luciferase reporters (PbmCherryLuci) were inoculated intravenously, and compounds were administered to mice by oral gavage 36 and 48 hours after injection during liver infection. Plasmodium berghei liver infection levels and egress of parasites from the liver were measured by bioluminescence signal from the parasites using the luciferase reporter and an In Vivo Imaging System (IVIS, Perkin Elmer) at the peak of liver infection (52 hours post infection, hpi), during liver egress (55 hpi) as well as during the first round of blood infection (65 hpi). Initiation of blood infection was also measured by flow cytometry at 65 hpi using the mCherry reporter to determine the parasitemia of this first round of blood infection. These analyses allowed quantification of the efficacy of drug killing of parasites in the liver (52 hpi), preventing their egress from the liver (55 hpi) or preventing their successful infection of the blood (65 hpi). Mice were monitored by giemsa stained thin blood smears for the presence of parasites in the blood for 30 days post infection. If no blood infection was seen during the subsequent 30 days, the mice were declared cured of malaria infection thus indicating the chemoprophylactic activity of these compounds.
The chemoprophylactic activity of administered compounds is not to kill liver Plasmodium berghei parasites nor to prevent their egress from the liver, but rather that liver-derived merozoites were unable to initiate a blood infection in these mice. The parasites are thus attenuated by the administered compounds. Such parasite attenuation by genetic means is a powerful vaccination strategy, and as such cure of liver parasites by the compounds could simultaneously be considered as chemoprophylaxis as well as a chemovaccination strategy. Mice previously cured of liver infection with the administered compounds (Chemovaccinated) were challenged with bites from 10 PbmCherryLuci infected mosquitoes at the indicated times after cure of liver infection with the administered compounds to determine the level of immunity engendered by this chemovaccination approach.
C57BL/6 mice were administered Example 2, as described in the general procedure. Thirty nine mice were infected with 40,000 sporozoites. Twenty-one mice were untreated. Six C57BL/6 mice were administered 2×100 mg/kg of Example 2. Six C57BL/6 mice were administered 2×200 mg/kg. Six C57BL/6 mice were administered 2×500 mg/kg. Example 2 dosed at 2×100 mg/kg cured four of six mice of their infection, as did mice dosed with 2×200 mg/kg of Example 2. […] These infections and treatments can be considered immunizations or chemovaccinations, since the parasite is attenuated by Example 2 and is unable to initiate the blood infection.
Additionally, the eight mice previously chemovaccinated with 2×100 mg/kg and 2×200 mg/kg of Example 2 were challenged three months later with bites from 10 mosquitoes infected with PbmCherryLuci sporozoites.

Assay [4] deals with ring stage parasites (Pf). Put plainly: Parasite lactate dehydrogenase (LDH) growth assay (Parasite Assay, PfLDH Assay). In kind it is cell-based, P. falciparum.
Setting [5] is: eight mice chemovaccinated once with 2×100 or 2×200 mg/kg, challenged three months later, bites from 10 infected mosquitoes.
The mark [6] stands for this setting: Plasmodium falciparum, 72 h, Table 3, 72 hours growth, LDH readout, read-out: EC50.

Entries after “also recorded” stand apart in the source; their conditions may differ. Where two headings read alike, the source gives them in different places.

One may read the Ki as the dissociation constant of the complex between target and ligand, obtained from inhibition or displacement. By EC50 is commonly meant the midpoint of the concentration-response curve.

PfPMX (recombinant plasmepsin X), sequence (Q8IAS0 222-573): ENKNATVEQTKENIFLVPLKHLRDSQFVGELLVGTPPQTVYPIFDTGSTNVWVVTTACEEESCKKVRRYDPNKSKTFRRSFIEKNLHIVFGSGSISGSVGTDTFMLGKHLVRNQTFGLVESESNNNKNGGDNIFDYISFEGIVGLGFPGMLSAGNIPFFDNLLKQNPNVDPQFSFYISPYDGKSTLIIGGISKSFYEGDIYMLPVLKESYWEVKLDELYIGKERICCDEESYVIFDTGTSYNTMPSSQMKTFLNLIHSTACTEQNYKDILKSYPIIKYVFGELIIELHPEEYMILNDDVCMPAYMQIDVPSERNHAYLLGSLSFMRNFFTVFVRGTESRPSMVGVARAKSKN

As to `CCC1(CC)CC(=O)N([C@H](c2cccnc2)[C@H]2C[C@@H]2C(=O)N[C@H]2CC(C)(C)Oc3ccccc32)C(=N)N1` [Example 2, (1S,2S)-2-((S)-(4,4-diethyl-2-imino-6-oxotetrahydropyrimidin-1(2H)-yl)(pyridin-3-yl)methyl)-N—((S)-2,2-dimethylchroman-4-yl)cyclopropanecarboxamide], the Ki is 0.026 nM in assay [1] and 5.95 nM in assay [2]. Also, the “mice cured of their infection” value in assay [3] (2×100 mg/kg oral gavage 36 and 48 h after 40,000 sporozoites i.v., 30 days monitoring) is “four of six”; in assay [3] (2×200 mg/kg oral gavage 36 and 48 h after 40,000 sporozoites i.v., 30 days monitoring), “four of six”. In addition, the “mice cured of their infection (chemoprophylaxis)” value in assay [3] (2×500 mg/kg oral gavage 36 and 48 h after 40,000 sporozoites i.v., 30 days monitoring, FIG. 1) is “cured all mice of their infection; also recorded: never got malaria”. The “protection from infection upon mosquito bite challenge after two immunizations” value in assay [3] (2×500 mg/kg twice, challenged 3 months later, bites from 10 infected mosquitoes, FIG. 2) is given as “completely protected from infection”. The “protection after two immunizations” value in assay [3] (2×500 mg/kg twice, mosquito bite challenge 3 months later, FIG. 2) is on record as 100%. Further, the “development of malaria disease after challenge, one immunization” value in assay [3] (setting [5]) is “all mice ultimately developed malaria disease”. Moreover, the “infection upon mosquito bite challenge after one immunization” value in assay [3] (setting [5]) is reported as “showed a reduction in infection upon challenge”. For the same compound, the “cure of second infection (boost immunization)” value in assay [3] (six mice, six weeks later 20,000 sporozoites, 2×500 mg/kg) is recorded as “cured them of this second infection”. Moreover, the EC50 came out at 0.9 nM in assay [4] (setting [6]) and 0.86 nM in assay [4] (Plasmodium falciparum, Table 6, AVG, N=3, read-out: PfLDH Assay (EC50)).

Turning to `COCC1(C)CC(NC(=O)[C@H]2C[C@@H]2[C@@H](c2cccnc2)N2C(=N)NC(C)(C)CC2=O)c2ccccc2O1` (single isomer, unassigned) [Example 108A], the EC50 in assay [4] (Table 3, 72 hours growth, LDH readout, read-out: EC50) worked out at 70 nM.

On to `CC[C@]1(C)CC(=O)N([C@H](c2cncc(F)c2)[C@H]2C[C@@H]2C(=O)N[C@H]2C[C@H](C(F)(F)F)Oc3ccccc32)C(=N)N1` [Example 68], for which the EC50 in assay [4] (setting [6]) was 0.3 nM.

Turning to `CC1(C)CC(=O)N([C@H](c2cccnc2)[C@H]2C[C@@H]2C(=O)N[C@H]2CC(C)(C)Oc3ccccc32)C(=N)N1` [Example 26], in assay [4] (setting [6]), the EC50 was 4.7 nM.

(Values after patent US20240131028A1, “CHEMOVACCINATION AGAINST PLASMODIUM INFECTION WITH SELECTIVE PLASMEPSIN X INHIBITORS” (Merck Sharp & Dohme LLC, priority 2021, published 2024).)
